From ChEMBL document CHEMBL5137008, “Recent advances of antitumor shikonin/alkannin derivatives: A comprehensive overview focusing on structural classification, synthetic approaches, and mechanisms of action” (Eur J Med Chem, 2022)

Legend:
HeLa = assay: Antiproliferative activity against human HeLa cells assessed as inhibition of cell growth incubated for 24 hrs by MTT assay; type: functional, cell-based
[1] = Cytotoxicity against human MCF-10A incubated for 24 hrs by MTT assay; type: toxicity, cell-based; settings: MCF-10A cells
B16-F10 = assay: Anticancer activity against mouse B16-F10 cells assessed as inhibition of cell proliferation incubated for 48 hrs by MTT assay; type: functional, cell-based; settings: B16-F10, 48 h
MG-63 = assay: Antiproliferative activity against human MG-63 cells incubated for 24 hrs by MTT assay; type: functional, cell-based; settings: MG-63, 24 h
SK-BR-3 = assay: Antiproliferative activity against human SK-BR-3 cells assessed as inhibition of cell growth incubated for 24 hrs in presence of foetal bovine serum by MTT assay; type: functional, cell-based; settings: SK-BR-3, 24 h
MCF7 [2] = assay: Antiproliferative activity against human MCF7 cells assessed as inhibition of cell growth incubated for 24 hrs in presence of foetal bovine serum by MTT assay; type: functional, cell-based; settings: MCF7, 24 h
MGC-803 = assay: Anticancer activity against human MGC-803 cells incubated for 72 hrs by MTT assay; type: functional, cell-based; settings: MGC-803, 72 h
[3] = Cytotoxicity against human L02 incubated for 24 hrs by MTT assay; type: toxicity, cell-based; settings: L02 cells
[4] = Antiproliferative activity against human BGC cells assessed as inhibition of cell proliferation incubated for 20 hrs by MTT assay; type: functional, cell-based
A549 [5] = assay: Antiproliferative activity against human A549 cells assessed as inhibition of cell proliferation incubated for 24 hrs by MTT assay; type: functional, cell-based; settings: A549, 24 h
HepG2 [6] = assay: Antiproliferative activity against human HepG2 cells assessed as inhibition of cell proliferation incubated for 24 hrs by MTT assay; type: functional, cell-based; settings: HepG2, 24 h
MCF7 [7] = assay: Antiproliferative activity against human MCF7 cells assessed as inhibition of cell growth incubated for 24 hrs by MTT assay; type: functional, cell-based; settings: MCF7, 24 h
A549 [8] = assay: Antiproliferative activity against human A549 cells assessed as reduction in cell viability incubated for 24 hrs by MTT assay; type: functional, cell-based; settings: A549, 24 h
HepG2 [9] = assay: Antiproliferative activity against human HepG2 cells incubated for 24 hrs by MTT assay; type: functional, cell-based; settings: HepG2, 24 h
MDA-MB-436 = assay: Antiproliferative activity against human MDA-MB-436 cells assessed as inhibition of cell growth incubated for 24 hrs in presence of foetal bovine serum by MTT assay; type: functional, cell-based; settings: MDA-MB-436, 24 h
[10] = Cytotoxicity against human HEK293T cells assessed as inhibition of cell growth incubated for 24 hrs in presence of foetal bovine serum by MTT assay; type: toxicity, cell-based, HEK-293T
L02 = assay: Antiproliferative activity against human L02 cells assessed as inhibition of cell proliferation incubated for 20 hrs by MTT assay; type: functional, cell-based; settings: L02, 20 h

IC50 (HeLa): 6.5 µM
IC50 (B16-F10): 3.72 µM
IC50 (SK-BR-3): 3.75 µM
IC50 (MCF7 [2]): 4.57 µM
IC50 (MGC-803): 1.28 µM
IC50 (A549 [5]): 3.13 µM
IC50 (HepG2 [6]): 9.36 µM
IC50 (MCF7 [7]): 7.75 µM
IC50 (A549 [8]): 1.71 µM
IC50 (HepG2 [9]): 2.73 µM
IC50 (MDA-MB-436): 3.61 µM
Structure (SMILES): CC(C)=CC[C@@H](O)C1=CC(=O)c2c(O)ccc(O)c2C1=O [SHIKONIN]
IC50 at 24 h [1]: 93.4 µM
IC50 (MG-63): 7.36 µM
IC50 at 24 h [3]: 83.8 µM
IC50 [4]: 2.2 µM
IC50 at 24 h [10]: 9.27 µM
IC50 (L02): 65.3 µM
